Laboratory results reported in paper PMC10385977, “On the Road towards Small-Molecule Programmed Cell Death 1 Ligand 1 Positron Emission Tomography Tracers: A Ligand-Based Drug Design Approach” (Pharmaceuticals, 2023).
Where two headings read alike, the source gives them in different places. Positions of bridges follow the written chain, without caps; N, C: chain ends. Non-standard residues stand in square brackets, D forms with d. Residues, ends and D or L forms follow the SMILES beside them. NMeNle = CCCC[C@H](NC)C(=O)O; NMeA = CN[C@@H](C)C(=O)O; Sar = CNCC(=O)O

Tests used:
[1] = HPLC lipophilicity measurement (µHPLC logPOWpH 7.4, logD); format: physicochemical; settings: HPLC on an apHera column (retention time method); pH 7.4, HPLC method, mean ± SD
Experimental: An equilibration time of 2 min before measurements was set. Solvent “A” consisted of methanol (Merck KGaA, Darmstadt, Germany) and solvent “B” of 10 mM sodium phosphate buffer pH 7.4. […] The measurements of lipophilicity of precursors and products were performed according to the HPLC method of Donovan and Pescatore and Vraka et al.. […] Three logP values of the reference substances were taken from the literature, resulting in a mean logP value of the analyte ( μHPLC logPOWpH 7.4analyte) . Furthermore, the values were compared to calculated logP (clogP) and topological polar surface area (tPSA) values from ChemDraw 20.1 (PerkinElmer, Inc., Waltham, MA, USA) as well as clogDpH7.4 values from MarvinSketch 22.13 (ChemAxon Ltd., Budapest, Hungary).

human PD-L1 [2] = target: T1, human PD-L1 (Homo sapiens, UniProt Q9NZQ7); experiment: HTRF PD-1/PD-L1 Binding Assay Kit (Cisbio); settings: for BEI (binding efficiency index): BEI = −logIC50/(molecular weight/1000); for LE (ligand efficiency): LE = −1.4(logIC50)/Nheavy atoms; for LELP (ligand-efficiency-dependent lipophilicity efficiency): LELP = µHPLC logPOWpH 7.4/LE; for LLE (ligand lipophilicity efficiency): LLE = −logIC50 − µHPLC logPOWpH 7.4
T1 construct: purchased Cisbio Bioassays SAS 64PD1PEG
T1 sequence (Q9NZQ7 19-238 limits assumed): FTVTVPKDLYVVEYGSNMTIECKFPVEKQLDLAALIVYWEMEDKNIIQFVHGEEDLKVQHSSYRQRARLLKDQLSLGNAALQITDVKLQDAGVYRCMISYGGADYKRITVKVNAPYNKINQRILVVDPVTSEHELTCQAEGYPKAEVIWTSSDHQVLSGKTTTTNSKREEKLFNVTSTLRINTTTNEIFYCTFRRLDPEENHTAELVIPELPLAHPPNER

[3] = In-solution stability in 1:1 DMSO/HEPES buffer (HPLC); settings: for remained intact: within the 20-day time period; for decomposition of the parent compound: 20 days
human PD-L1 [4] = target: T1, human PD-L1; set-up: method as in doi:10.14205/2309-4435.2013.01.01.6
hPD-L1 = system: hPD-L1; set-up: method as in earlier work; settings: HTRF assay; cited from earlier work
[5] = Metabolic stability in human liver microsomes; format: in vitro ADME; settings: incubation for 40 min
Experimental: Metabolic stability was assessed using pooled, mixed gender human liver microsomes (HLMs) (Corning, Corning, NY, USA) according to the supplied protocol. In short, 15 µL of HLM (20 mg/mL), 15 µL of NADPH regenerating system solution A (Corning, Corning, NY, USA), 3 µL of solution B (Corning, Corning, NY, USA) and 257 µL of a 1:10 dilution of 10× PBS concentrate (MORPHISTO, Offenbach am Main, Germany) were pre-incubated at 37 °C for 10 min. Aliquots were drawn 0, 10, 20, 30 and 40 min after addition of 10 µL radiotracer, subsequently quenched with the same amount of MeCN, centrifuged for 4 min at 21,500× g and analyzed by HPLC setup 3.

chromatographic logD [1] | BEI (binding efficiency index) (human PD-L1 [2]) | LE (ligand efficiency) (human PD-L1 [2]) [kcal/mol/Heavy Atom] | LELP (ligand-efficiency-dependent lipophilicity efficiency) (human PD-L1 [2]) | LLE (ligand lipophilicity efficiency) (human PD-L1 [2]) | IC50 (human PD-L1 [2]; read-out: IC50 (This Work)) [nM] | remained intact [3] | decomposition of the parent compound [3] | Compound | also measured
4.23 ± 0.17 | 9.9 | 0.19 | 22.2 | 0.8 | 9880 ± 1390 | – | less than 2% | COc1nc(OCc2cccc(-c3ccccc3)c2C)ccc1CN(CCNC(C)=O)C(=O)OCCF [Substance 2d, 2-Fluoroethyl (2-Acetamidoethyl)((2-methoxy-6-((2-methyl-[1,1′-biphenyl]-3-yl)methoxy)pyridin-3-yl)methyl)carbamate] | dose-response curve in HTRF assay (human PD-L1 [2]; HTRF binding curves): No full dose response curves were observed
4.28 ± 0.18 | 13.1 | 0.25 | 17.1 | 1.6 | 1310 ± 185 | – | less than 2% | COc1nc(OCc2cccc(-c3ccccc3)c2C)ccc1CN(C)CCN(C)C(C)=O [Substance 2c, N-(2-(((2-Methoxy-6-((2-methyl-[1,1′-biphenyl]-3-yl)methoxy)pyridin-3-yl)methyl)(methyl)amino)ethyl)-N-methylacetamide] | –

Continued, compound first:

Compound | chromatographic logD [1] | BEI (binding efficiency index) (human PD-L1 [2]) | LE (ligand efficiency) (human PD-L1 [2]) [kcal/mol/Heavy Atom] | LELP (ligand-efficiency-dependent lipophilicity efficiency) (human PD-L1 [2]) | LLE (ligand lipophilicity efficiency) (human PD-L1 [2]) | IC50 (human PD-L1 [2]; read-out: IC50 (This Work)) [nM] | remained intact [3] | decomposition of the parent compound [3] | also measured
COc1nc(OCc2cccc(-c3ccccc3)c2C)ccc1CNCCN(C)C(C)=O [Substance 2b, N-(2-(((2-Methoxy-6-((2-methyl-[1,1′-biphenyl]-3-yl)methoxy)pyridin-3-yl)methyl)amino)ethyl)-N-methylacetamide] | 3.97 ± 0.13 | 14.5 | 0.27 | 14.4 | 2.3 | 524 ± 67 | over 85% | – | –
COc1nc(OCc2cccc(-c3ccccc3)c2C)ccc1CN(C)CCNC(C)=O [Substance 2a, N-(2-(((2-Methoxy-6-((2-methyl-[1,1′-biphenyl]-3-yl)methoxy)pyridin-3-yl)methyl)(methyl)amino)ethyl)acetamide] | 4.13 ± 0.16 | 14.7 | 0.28 | 14.8 | 2.2 | 430 ± 62 | – | less than 2% | fold reduced affinity compared to lead structure 2 (human PD-L1 [2]; ratio of HTRF IC50 values): 4.3 fold
CCCC[C@H]1C(=O)N(C)[C@@H](CCCC)C(=O)N[C@@H](CCCNC(=N)N)C(=O)N[C@H](C(=O)NCC(N)=O)CSCC(=O)N[C@@H](Cc2ccccc2)C(=O)N(C)[C@@H](C)C(=O)N[C@@H](CC(N)=O)C(=O)N2CCC[C@H]2C(=O)N[C@@H](Cc2c[nH]cn2)C(=O)N[C@@H](CC(C)C)C(=O)N(C)CC(=O)N[C@@H](Cc2c[nH]c3ccccc23)C(=O)N[C@@H](CO)C(=O)N[C@@H](Cc2c[nH]c3ccccc23)C(=O)N1C [Inhibitor 3, reference compound] ({CH2CO}-F[NMeA]NPHL[Sar]WSW[NMeNle][NMeNle]RCG-NH2; thioether N-14; N-terminus and C-terminus assumed) | – | – | – | – | – | – | – | – | IC50 (human PD-L1 [2]): 113 ± 45 nM; IC50 (human PD-L1 [4]; read-out: IC50 (Cisbio); HTRF assay, vendor value; cited from earlier work): 146 nM
Atezolizumab: anti-PD-L1 antibody, positive control (MedChemExpress) | – | – | – | – | – | – | – | – | IC50 (human PD-L1 [2]; HTRF PD-1/PD-L1 binding assay, mean ± SD, three experiments, read-out: IC50 (This Work)): 4.07 ± 0.42 nM; IC50 (human PD-L1 [4]; HTRF assay, vendor value; read-out: IC50 (Cisbio); cited from earlier work): 3.84 nM
COc1cc(OCc2cccc(-c3ccccc3)c2C)cc(OC)c1CN1CCCC[C@H]1C(=O)OCCF [Substance 1b, 2-Fluoroethyl (S)-1-(2,6-Dimethoxy-4-((2-methyl-[1,1′-biphenyl]-3-yl)methoxy)benzyl)piperidine-2-carboxylate] | 5.02 ± 0.28 | 11.4 | 0.22 | 22.9 | 0.9 | 1440 ± 144 | over 85% | – | –
COc1nc(OCc2cccc(-c3ccccc3)c2C)ccc1CNCCNC(C)=O [Substance 2, N-(2-(((2-methoxy-6-((2-methyl-[1,1′-biphenyl]-3-yl)methoxy)pyridin-3-yl)methyl)amino)ethyl)acetamide, reference compound] | 3.88 ± 0.12 | – | – | – | – | – | – | less than 2% | –
COc1cc(OCc2cccc(-c3ccccc3)c2C)cc(OC)c1CN1CCCC[C@H]1C(=O)O [Substance 1, (S)-1-(2,6-dimethoxy-4-((2-methyl-[1,1′-biphenyl]-3-yl)methoxy)benzyl)piperidine-2-carboxylic acid, reference compound] | 3.16 ± 0.16 | – | – | – | – | – | over 85% | – | IC50 (hPD-L1): […]
COc1nc(OCc2cccc(-c3ccccc3)c2C)ccc1CN([11CH3])CCNC(C)=O [[^11C]2a] | – | – | – | – | – | – | – | – | intact tracer [5]: ~ 90%
COC(=O)[C@@H]1CCCCN1Cc1c(OC)cc(OCc2cccc(-c3ccccc3)c2C)cc1OC [Substance 1a, Methyl (S)-1-(2,6-Dimethoxy-4-((2-methyl-[1,1′-biphenyl]-3-yl)methoxy)benzyl)piperidine-2-carboxylate] | 4.9 ± 0.27 | 10.7 | 0.20 | 24.0 | 0.3 | 5760 ± 613 | over 85% | – | –
